Source: PubChem BioAssay AID588827 (Broad Institute, 2011)
Records with an inconclusive call do not appear.

Each molecule was assayed on NIH3T3 R4 HSF-1 GFP reporter, heat shock, 48 h (assay: decrease of heat-induced HSF-1 GFP reporter, dose response, NIH3T3 R4 cells, GFP/RFP, cherry-pick, set 4 (AID 588827)).

In order of falling AC50:
1. C(=N\NC1=Nc2cccc3cccc1c23)/c1ccccn1  19.2 µM
2. CCc1ccc(C2=NNC(=Nc3cccc(S(=O)(=O)N(C)C)c3)SC2)cc1  15.7 µM
3. Cn1c(=O)c([N+](=O)[O-])c(Cl)c2ccccc21  14.2 µM
4. C=C(C)C(=O)O[C@H]1C/C(C)=C\C(=O)/C=C(\C)[C@H](O)[C@@H]2OC(=O)C(=C)[C@@H]21  12.9 µM
5. Cc1cc([N+](=O)[O-])c2ccccc2[n+]1[O-]  11 µM
6. CCOC(=O)Cc1nnc2c(Nc3ccccc3F)nc3nonc3n12  7.38 µM
7. COc1ccccc1-c1cc(C(F)(F)F)nc(S(=O)(=O)CCCC(=O)NCc2ccc(F)cc2)n1  5.26 µM
8. O=C(CCl)Nc1cn(-c2ccccc2)nc1-c1ccc(F)cc1  5.2 µM
9. O=C(CCl)N(c1ccccc1)C1CCCCC1  5.18 µM
10. O=S(=O)(c1ccc2c(c1)C(=NO)c1cc(S(=O)(=O)N3CCCCC3)ccc1-2)N1CCCCC1  2.49 µM
11. CC12CCC(C/C1=N\N=C1\NC(=O)/C(=C\c3ccc(Cl)cc3)S1)C2(C)C (stereo not given)  2.11 µM
12. Cc1ccc(NC2=C/C(=N\S(=O)(=O)c3cccs3)c3ccccc3C2=O)c(C)c1  1.42 µM
13. CCOC(=O)c1c(C)[nH]c2c1-c1ccccc1C(=O)C2=O  1.23 µM
14. CC(C)(C)c1ccc2c(c1)OC(C(=O)N/N=C\c1ccc[nH]1)CO2 (stereo not given)  0.515 µM
15. COc1ccc(C[C@H]2NC[C@H](O)[C@H]2OC(C)=O)cc1  0.361 µM
